ChEMBL document CHEMBL1132769, “Diphenyl sulfoxides as selective antagonists of the muscarinic M2 receptor” (Bioorg Med Chem Lett, 2000)
Values joined by “and” are separate entries in the source; they are usually repeats but may differ in a detail not shown here. Identical values can stand only once.

How the values were obtained:
[1] = target: T1, Muscarinic acetylcholine receptor M1 (Homo sapiens, UniProt P11229); assay: Binding affinity towards the cloned human Muscarinic acetylcholine receptor M1
T1 sequence (P11229 whole entry): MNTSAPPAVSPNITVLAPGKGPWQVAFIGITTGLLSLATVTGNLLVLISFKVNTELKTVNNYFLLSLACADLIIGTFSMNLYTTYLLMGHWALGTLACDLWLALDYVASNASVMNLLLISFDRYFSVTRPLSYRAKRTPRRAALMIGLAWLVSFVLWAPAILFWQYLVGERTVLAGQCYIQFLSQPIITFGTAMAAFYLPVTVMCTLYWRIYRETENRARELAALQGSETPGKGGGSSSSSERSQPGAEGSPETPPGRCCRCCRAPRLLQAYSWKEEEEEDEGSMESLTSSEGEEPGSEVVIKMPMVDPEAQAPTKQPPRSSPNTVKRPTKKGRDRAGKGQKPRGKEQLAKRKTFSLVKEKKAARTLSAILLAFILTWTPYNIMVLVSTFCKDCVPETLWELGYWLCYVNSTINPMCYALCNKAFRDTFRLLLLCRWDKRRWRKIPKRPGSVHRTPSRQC

[2] = target: T2, Muscarinic acetylcholine receptor M2 (Homo sapiens, UniProt P08172); assay: Binding affinity towards the cloned human Muscarinic acetylcholine receptor M2
T2 sequence (P08172 whole entry): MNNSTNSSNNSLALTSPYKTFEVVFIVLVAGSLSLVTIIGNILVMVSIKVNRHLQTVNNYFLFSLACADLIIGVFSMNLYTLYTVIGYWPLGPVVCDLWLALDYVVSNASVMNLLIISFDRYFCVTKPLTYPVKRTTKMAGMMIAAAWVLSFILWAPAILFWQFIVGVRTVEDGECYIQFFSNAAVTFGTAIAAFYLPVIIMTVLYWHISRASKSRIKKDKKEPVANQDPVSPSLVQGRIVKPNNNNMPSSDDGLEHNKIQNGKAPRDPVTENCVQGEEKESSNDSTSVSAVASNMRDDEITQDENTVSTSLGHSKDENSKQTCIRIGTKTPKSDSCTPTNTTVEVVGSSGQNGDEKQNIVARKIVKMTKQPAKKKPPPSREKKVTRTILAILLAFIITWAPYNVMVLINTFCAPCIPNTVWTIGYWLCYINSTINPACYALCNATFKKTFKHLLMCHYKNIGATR

[3] = target: Muscarinic acetylcholine receptors; M1 & M2 (Homo sapiens) (UniProt P11229+P08172); assay: Ratio of binding affinity to M1 receptor compared to that of M2 receptor; assay type: protein assay

Row | Compound | Ki [1] | Ki [2] | Ratio [3]
1 | COc1ccc([S@@+]([O-])c2ccc(C(C#N)N3CCN(C4CCCCC4)CC3)cc2)cc1 (single isomer, unassigned; form 1) [listing 1 of 2 here] |  |  | 15
2 | CC(c1ccc(S(=O)(=O)c2ccccc2)cc1)N1CCN(C)CC1 (stereo unspecified) | 96 nM | 34 nM | 3
3 | COc1ccc([S@@+]([O-])c2ccc(C(C#N)N3CCN(C4CCCCC4)CC3)cc2)cc1 (single isomer, unassigned; form 1) [listing 2 of 2 here] | 140 nM and 253 nM | 9 nM and 17 nM | 
4 | COc1ccc([S+]([O-])c2ccc(C(C3CCCCC3)N3CCN(C4CCCCC4)CC3)cc2)cc1 (stereo unspecified) | 52 nM | 17 nM | 3
5 | CCOC(=O)N1CCN(C(C)c2ccc(S(=O)(=O)c3ccccc3)cc2)CC1 (stereo unspecified) | 200 nM | 135 nM | 1.5
6 | COc1ccc([S+]([O-])c2ccc(C(N3CCN(C4CCCCC4)CC3)C(F)(F)F)cc2)cc1 (stereo unspecified) | 23 nM | 5 nM | 5
7 | COc1ccc([S@@+]([O-])c2ccc(C(C#N)N3CCN(C4CCCCC4)CC3)cc2)cc1 (single isomer, unassigned; form 2) [listing 1 of 2 here] |  |  | 22 and 9
8 | COc1ccc([S@@+]([O-])c2ccc(C(C#N)N3CCN(C4CCCCC4)CC3)cc2)cc1 (stereo in doubt; 1) [listing 1 of 2 here] |  | 2.7 nM | 
9 | CC(c1ccc(S(=O)(=O)c2ccccc2)cc1)N1CCNCC1 (stereo unspecified) | 57 nM | 37 nM | 1.6
10 | COc1ccc([S@@+]([O-])c2ccc(C(C#N)N3CCN(C4CCCCC4)CC3)cc2)cc1 (stereo in doubt; 1) [listing 2 of 2 here] |  |  | 40
11 | CC(c1ccc(S(=O)(=O)c2ccccc2)cc1)N1CCN(c2ccccc2)CC1 (stereo unspecified) | 4770 nM | 4600 nM | 1
12 | COc1ccc([S+]([O-])c2ccc(C(C#N)N3CCN(C4CCCCC4)CC3)cc2)cc1 (stereo unspecified) | 117 nM | 8 nM | 14
13 | CC(c1ccc(S(=O)(=O)c2ccccc2)cc1)N1CCN(CCO)CC1 (stereo unspecified) | 77 nM | 26 nM | 3

Further lines, results first:

Row | Ki [1] | Ki [2] | Ratio [3] | Compound
14 | 85 nM | 33 nM | 2.6 | CC(c1ccc(S(=O)(=O)c2ccc(C(C)(C)C)cc2)cc1)N1CCN(C2CCCCC2)CC1 (stereo unspecified)
15 | 106 nM | 36 nM | 3 | CC(c1ccc(S(=O)(=O)c2ccc(S(C)(=O)=O)cc2)cc1)N1CCN(C2CCCCC2)CC1 (stereo unspecified)
16 | 242 nM | 40 nM | 6 | COc1ccc([S+]([O-])c2ccc(C(C(N)=O)N3CCN(C4CCCCC4)CC3)cc2)cc1 (stereo unspecified)
17 |  |  | 6 | COc1ccc([S+]([O-])c2ccc(C(C)N3CCN(C4CCCCC4)CC3)cc2)cc1 (stereo unspecified)
18 | 6 nM | 0.6 nM | 10 | COc1ccc(S(=O)(=O)c2ccc(C(C)N3CCN(C4CCCCC4)CC3)cc2)cc1 (stereo unspecified)
19 | 1.3 nM | 0.2 nM | 6 | CC(c1ccc(S(=O)(=O)c2ccccc2)cc1)N1CCN(C2CCCCC2)CC1 (stereo unspecified)
20 | 11 nM | 0.8 nM | 14 | Cc1ccc(S(=O)(=O)c2ccc(C(C)N3CCN(C4CCCCC4)CC3)cc2)cc1 (stereo unspecified)
21 | 83 nM and 180 nM | 3.8 nM and 20 nM |  | COc1ccc([S@@+]([O-])c2ccc(C(C#N)N3CCN(C4CCCCC4)CC3)cc2)cc1 (single isomer, unassigned; form 2) [listing 2 of 2 here]
